Starred links: 1 amine or outer side, 2 acyl side, 3 side chain; linkers in the order of their positions; H or OH if unused. Positions of bridges follow the written chain, without caps; N, C: chain ends. Non-standard residues stand in square brackets, D forms with d. Residues, ends and D or L forms follow the SMILES beside them. *: point of attachment. DOTA = O=C(O)CN1CCN(CC(=O)O)CCN(CC(=O)*)CCN(CC(=O)O)CC1; mXylylene = c1cc(C[*:1])cc(C[*:2])c1; NMeY = CN[C@@H](Cc1ccc(O)cc1)C(=O)O; X2 = O=C(CN1CCC(N[*:1])CC1)[*:2]; tBuAla = CC(C)(C)C[C@H](N)C(=O)O; Tic = O=C(O)[C@@H]1Cc2ccccc2CN1; Aic = NC1(C(=O)O)Cc2ccccc2C1; Pen = CC(C)(S)[C@H](N)C(=O)O; Isovaleryl = CC(C)CC(=O)*; Thp = NC1(C(=O)O)CCOCC1; Aib = CC(C)(N)C(=O)O; βAla = NCCC(=O)O; Sar = CNCC(=O)O
These molecules were tested against T1, CAIX-expressing human HT-29 colorectal cancer cells (Homo sapiens, UniProt Q16790) (assay: FACS binding assay (IC50 determination, competition with tracer 3BP-2776 or 3BP-4149)). Conditions: FACS competition on HT-29 cells, Tracer ID 3BP-2776 (10 nM, biotin-labeled), 4° C., 1 hour; read-out: pIC50 category (activity) (converted).
T1 construct: CAIX-expressing human HT-29 colorectal cancer cells; host or cells: HT-29 human colorectal cancer cells
Outline: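 HT-29 cells in FACS buffer (PBS, 1% FCS) at 500.000 cells/ml were exposed to compounds competing with a labelled tracer, with biotinylated compounds detected by 1 μg/mL APC-streptavidin for 30 min on ice. APC/Cy5 median fluorescence was read by flow cytometry and IC50 derived by 4PL fit.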

IC50 [nM]	Structure (SMILES)
< 10	CC(=O)N[C@H](C(=O)N[C@@H](Cc1ccc(O)cc1)C(=O)N[C@H]1CSCc2cccc(c2)CSC(C)(C)[C@@H](C(N)=O)NC(=O)[C@H](C)NC(=O)[C@H](Cc2c[nH]c3ccccc23)NC(=O)[C@H]([C@@H](C)O)NC(=O)[C@H](CC(C)(C)C)NC(=O)[C@H](Cc2c[nH]c3ccccc23)NC(=O)[C@H](CC(=O)O)NC(=O)CN(C)C(=O)[C@H](CCC(=O)O)NC1=O)C(C)C [3BP-3501] (Ac-VYCE[Sar]DW[tBuAla]TWA[Pen]-NH2; linker 3-12 via mXylylene)
10 to 79.4	CC(=O)N[C@H](C(=O)N[C@@H](Cc1ccc(O)cc1)C(=O)N[C@H]1CSCc2cccc(c2)CSC[C@@H](C(N)=O)NC(=O)[C@H](C)NC(=O)[C@H](Cc2c[nH]c3ccccc23)NC(=O)[C@H]([C@@H](C)O)NC(=O)C(C)(C)NC(=O)[C@H](Cc2c[nH]c3ccccc23)NC(=O)[C@H](CC(=O)O)NC(=O)[C@H]2CCCN2C(=O)[C@H](CCC(=O)O)NC1=O)C(C)C [3BP-3502] (Ac-VYCE[dP]DW[Aib]TWAC-NH2; linker 3-12 via mXylylene)
< 10	CC(=O)N[C@@H](CO)C(=O)N[C@@H](Cc1ccc(O)cc1)C(=O)N[C@H]1CSCc2cccc(c2)CSC[C@@H](C(N)=O)NC(=O)[C@H](CO)NC(=O)[C@H](Cc2c[nH]c3ccccc23)NC(=O)[C@H]([C@@H](C)O)NC(=O)[C@H](CC(C)C)NC(=O)[C@H](Cc2c[nH]c3ccccc23)NC(=O)[C@H](CC(=O)O)NC(=O)[C@H]2CCCN2C(=O)[C@H](CCC(=O)O)NC1=O [3BP-3566] (Ac-SYCE[dP]DWLTWSC-NH2; linker 3-12 via mXylylene)
< 10	CC(=O)N[C@H](C(=O)N[C@@H](Cc1ccc(O)cc1)C(=O)N[C@H]1CSCc2cccc(c2)CSC[C@@H](C(N)=O)NC(=O)[C@H](CO)NC(=O)[C@H](Cc2c[nH]c3ccccc23)NC(=O)[C@H]([C@@H](C)O)NC(=O)[C@H](CC(C)C)NC(=O)[C@H](Cc2c[nH]c3ccccc23)NC(=O)[C@H](CC(=O)O)NC(=O)[C@H]2CCCN2C(=O)[C@H](CCC(=O)O)NC1=O)[C@@H](C)O [3BP-3567] (Ac-TYCE[dP]DWLTWSC-NH2; linker 3-12 via mXylylene)
< 10	CC[C@H](C)[C@H](NC(C)=O)C(=O)N[C@@H](Cc1ccc(O)cc1)C(=O)N[C@H]1CSCc2cccc(c2)CSC[C@@H](C(N)=O)NC(=O)[C@H](CO)NC(=O)[C@H](Cc2c[nH]c3ccccc23)NC(=O)[C@H]([C@@H](C)O)NC(=O)[C@H](CC(C)C)NC(=O)[C@H](Cc2c[nH]c3ccccc23)NC(=O)[C@H](CC(=O)O)NC(=O)[C@H]2CCCN2C(=O)[C@H](CCC(=O)O)NC1=O [3BP-3568] (Ac-IYCE[dP]DWLTWSC-NH2; linker 3-12 via mXylylene)
< 10	CC(C)CC(=O)N[C@@H](Cc1ccc(O)cc1)C(=O)N[C@H]1CSCc2cccc(c2)CSC[C@@H](C(N)=O)NC(=O)[C@H](CO)NC(=O)[C@H](Cc2c[nH]c3ccccc23)NC(=O)[C@H]([C@@H](C)O)NC(=O)[C@H](CC(C)C)NC(=O)[C@H](Cc2c[nH]c3ccccc23)NC(=O)[C@H](CC(=O)O)NC(=O)[C@H]2CCCN2C(=O)[C@H](CCC(=O)O)NC1=O [3BP-3569] (Isovaleryl-YCE[dP]DWLTWSC-NH2; linker 2-11 via mXylylene)
< 10	CC(=O)N[C@H](C(=O)N[C@@H](Cc1ccccc1)C(=O)N[C@H]1CSCc2cccc(c2)CSC[C@@H](C(N)=O)NC(=O)[C@H](CO)NC(=O)[C@H](Cc2c[nH]c3ccccc23)NC(=O)[C@H]([C@@H](C)O)NC(=O)[C@H](CC(C)C)NC(=O)[C@H](Cc2c[nH]c3ccccc23)NC(=O)[C@H](CC(=O)O)NC(=O)[C@H]2CCCN2C(=O)[C@H](CCC(=O)O)NC1=O)C(C)C [3BP-3570] (Ac-VFCE[dP]DWLTWSC-NH2; linker 3-12 via mXylylene)
< 10	CC(=O)N[C@H](C(=O)N[C@@H](CO)C(=O)N[C@H]1CSCc2cccc(c2)CSC[C@@H](C(N)=O)NC(=O)[C@H](CO)NC(=O)[C@H](Cc2c[nH]c3ccccc23)NC(=O)[C@H]([C@@H](C)O)NC(=O)[C@H](CC(C)C)NC(=O)[C@H](Cc2c[nH]c3ccccc23)NC(=O)[C@H](CC(=O)O)NC(=O)[C@H]2CCCN2C(=O)[C@H](CCC(=O)O)NC1=O)C(C)C [3BP-3571] (Ac-VSCE[dP]DWLTWSC-NH2; linker 3-12 via mXylylene)
10 to 79.4	CC(=O)N[C@H](C(=O)N1Cc2ccccc2C[C@H]1C(=O)N[C@H]1CSCc2cccc(c2)CSC[C@@H](C(N)=O)NC(=O)[C@H](CO)NC(=O)[C@H](Cc2c[nH]c3ccccc23)NC(=O)[C@H]([C@@H](C)O)NC(=O)[C@H](CC(C)C)NC(=O)[C@H](Cc2c[nH]c3ccccc23)NC(=O)[C@H](CC(=O)O)NC(=O)[C@H]2CCCN2C(=O)[C@H](CCC(=O)O)NC1=O)C(C)C [3BP-3572] (Ac-V[Tic]CE[dP]DWLTWSC-NH2; linker 3-12 via mXylylene)
< 10	CC(C)[C@H](NC(=O)CN1CCC(NC(=O)CN2CCN(CC(=O)O)CCN(CC(=O)O)CCN(CC(=O)O)CC2)CC1)C(=O)N[C@@H](Cc1ccc(O)cc1)C(=O)N[C@H]1CSCc2cccc(c2)CSC[C@@H](C(N)=O)NC(=O)[C@H](CO)NC(=O)[C@H](Cc2c[nH]c3ccccc23)NC(=O)[C@H]([C@@H](C)O)NC(=O)C2(CCOCC2)NC(=O)[C@H](Cc2c[nH]c3ccccc23)NC(=O)[C@H](CC(=O)O)NC(=O)[C@H]2CCCN2C(=O)[C@H](CCC(=O)O)NC1=O [3BP-3585] ({DOTA}-[X2]VYCE[dP]DW[Thp]TWSC-NH2; linker 4-13 via mXylylene)
< 10	CC(C)[C@H](NC(=O)CN1CCC(NC(=O)CN2CCN(CC(=O)O)CCN(CC(=O)O)CCN(CC(=O)O)CC2)CC1)C(=O)N[C@@H](Cc1ccc(O)cc1)C(=O)N[C@H]1CSCc2cccc(c2)CSC[C@@H](C(N)=O)NC(=O)[C@H](CO)NC(=O)[C@H](Cc2c[nH]c3ccccc23)NC(=O)[C@H]([C@@H](C)O)NC(=O)C2(Cc3ccccc3C2)NC(=O)[C@H](Cc2c[nH]c3ccccc23)NC(=O)[C@H](CC(=O)O)NC(=O)[C@H]2CCCN2C(=O)[C@H](CCC(=O)O)NC1=O [3BP-3586] ({DOTA}-[X2]VYCE[dP]DW[Aic]TWSC-NH2; linker 4-13 via mXylylene)
< 10	CC(=O)N[C@H](C(=O)N[C@@H](CCCNC(=N)N)C(=O)N[C@H]1CSCc2cccc(c2)CSC[C@@H](C(N)=O)NC(=O)[C@H](CO)NC(=O)[C@H](Cc2c[nH]c3ccccc23)NC(=O)[C@H]([C@@H](C)O)NC(=O)[C@H](CC(C)C)NC(=O)[C@H](Cc2c[nH]c3ccccc23)NC(=O)[C@H](CC(=O)O)NC(=O)[C@H]2CCCN2C(=O)[C@H](CCC(=O)O)NC1=O)C(C)C [3BP-3588] (Ac-VRCE[dP]DWLTWSC-NH2; linker 3-12 via mXylylene)
< 10	CC(=O)N[C@H](C(=O)N(C)[C@@H](Cc1ccc(O)cc1)C(=O)N[C@H]1CSCc2cccc(c2)CSC[C@@H](C(N)=O)NC(=O)[C@H](CO)NC(=O)[C@H](Cc2c[nH]c3ccccc23)NC(=O)[C@H]([C@@H](C)O)NC(=O)[C@H](CC(C)C)NC(=O)[C@H](Cc2c[nH]c3ccccc23)NC(=O)[C@H](CC(=O)O)NC(=O)[C@H]2CCCN2C(=O)[C@H](CCC(=O)O)NC1=O)C(C)C [3BP-3589] (Ac-V[NMeY]CE[dP]DWLTWSC-NH2; linker 3-12 via mXylylene)
< 10	CC(C)C[C@@H]1NC(=O)[C@H](Cc2c[nH]c3ccccc23)NC(=O)[C@H](CO)NC(=O)[C@H]2CCCN2C(=O)[C@H](CCC(=O)O)NC(=O)[C@@H](NC(=O)[C@H](Cc2ccc(O)cc2)NC(=O)[C@@H](NC(=O)CN2CCC(NC(=O)CN3CCN(CC(=O)O)CCN(CC(=O)O)CCN(CC(=O)O)CC3)CC2)C(C)C)CSCc2cccc(c2)CSC[C@@H](C(N)=O)NC(=O)[C@H](CO)NC(=O)[C@H](Cc2c[nH]c3ccccc23)NC(=O)[C@H]([C@@H](C)O)NC1=O [3BP-3595] ({DOTA}-[X2]VYCE[dP]SWLTWSC-NH2; linker 4-13 via mXylylene)
< 10	CC(C)C[C@@H]1NC(=O)[C@H](Cc2ccccc2)NC(=O)[C@H](CC(=O)O)NC(=O)[C@H]2CCCN2C(=O)[C@H](CCC(=O)O)NC(=O)[C@@H](NC(=O)[C@H](Cc2ccc(O)cc2)NC(=O)[C@@H](NC(=O)CN2CCC(NC(=O)CN3CCN(CC(=O)O)CCN(CC(=O)O)CCN(CC(=O)O)CC3)CC2)C(C)C)CSCc2cccc(c2)CSC[C@@H](C(N)=O)NC(=O)[C@H](CO)NC(=O)[C@H](Cc2c[nH]c3ccccc23)NC(=O)[C@H]([C@@H](C)O)NC1=O [3BP-3596] ({DOTA}-[X2]VYCE[dP]DFLTWSC-NH2; linker 4-13 via mXylylene)
< 10	CC(C)C[C@@H]1NC(=O)[C@H](Cc2c[nH]c3ccccc23)NC(=O)[C@H](CC(=O)O)NC(=O)[C@H]2CCCN2C(=O)[C@H](CCC(=O)O)NC(=O)[C@@H](NC(=O)[C@H](Cc2ccc(O)cc2)NC(=O)[C@@H](NC(=O)CN2CCC(NC(=O)CN3CCN(CC(=O)O)CCN(CC(=O)O)CCN(CC(=O)O)CC3)CC2)C(C)C)CSCc2cccc(c2)CSC[C@@H](C(N)=O)NC(=O)[C@H](CO)NC(=O)[C@H](Cc2c[nH]c3ccccc23)NC(=O)[C@H](Cc2c[nH]cn2)NC1=O [3BP-3597] ({DOTA}-[X2]VYCE[dP]DWLHWSC-NH2; linker 4-13 via mXylylene)
100 to 794	CC(=O)N[C@H](C(=O)N[C@@H](Cc1ccc(O)cc1)C(=O)N[C@@H]1CSCc2cccc(c2)CSC[C@@H](C(N)=O)NC(=O)[C@H](CO)NC(=O)[C@H](Cc2c[nH]c3ccccc23)NC(=O)[C@H]([C@@H](C)O)NC(=O)[C@H](CC(C)C)NC(=O)[C@H](Cc2c[nH]c3ccccc23)NC(=O)CCNC1=O)C(C)C [3BP-3604] (Ac-VY[dC][βAla]WLTWSC-NH2; linker 3-10 via mXylylene)
< 10	CC(C)CC(=O)N[C@@H](CC(=O)O)C(=O)N[C@H]1CSCc2cccc(c2)CSC[C@@H](C(N)=O)NC(=O)[C@H](CO)NC(=O)[C@H](Cc2c[nH]c3ccccc23)NC(=O)[C@H]([C@@H](C)O)NC(=O)[C@H](CC(C)C)NC(=O)[C@H](Cc2c[nH]c3ccccc23)NC(=O)[C@H](CC(=O)O)NC(=O)[C@H]2CCCN2C(=O)[C@H](CCC(=O)O)NC1=O [3BP-3727] (Isovaleryl-DCE[dP]DWLTWSC-NH2; linker 2-11 via mXylylene)

— US20250339569A1, “CARBONIC ANHYDRASE IX LIGANDS” (priority 2021, published 2025)
